# What was measured:
# [1] = test system: Ramos cells; assay: Label-free quantitative proteomics in Ramos cells; format: cell-based, Homo sapiens; settings: 24 h; for Difference for 50 nM, C11orf98 / Difference for 100 nM, C11orf98: protein C11orf98 (E9PRG8); for Difference for 50 nM, MED19 / Difference for 100 nM, MED19: protein MED19 (A0JLT2); for Difference for 50 nM, MAP1LC3B;MAP1LC3B2;MAP1LC3A / Difference for 100 nM, MAP1LC3B;MAP1LC3B2;MAP1LC3A: proteins MAP1LC3B;MAP1LC3B2;MAP1LC3A; for Difference for 50 nM, MIF4GD / Difference for 100 nM, MIF4GD: protein MIF4GD (A9UHW6)
# Protocol: To assess their proteomic selectivity, we incubated the PROTACs at 50 or 100 nM for 24 h with Ramos cells and followed the change in protein abundance via quantitative label-free proteomics (Figure 7, Supporting Figure 6). In agreement with the Western blot analysis, BTK was efficiently degraded by all the PROTACs we tested. […] Ramos cells were incubated with each PROTAC (50 nM) or DMSO in quadruplicates for 24 h and were then subjected to label-free quantitative proteomics analysis. Each graph plots the Log2 fold-change of proteins in the treated samples compared to the DMSO controls (x-axis) vs the −log(p-value) of that comparison in a Student’s t test (y-axis). […]
# supplemented with 300 mM imidazole). The His tag was cleaved by the addition of TEV protease with concomitant dialysis overnight into cleavage buffer (50 mM Tris, pH 8.0, 0.5 mM EDTA, 1 mM DTT) at 4°C. The resulting soluble protein was passed ov er Ni -NTA beads to remove the protease and purified further by gel filtration on a HiLoad_16/60_Superdex_75 (GE Healthcare) column equilibrated with 20 mM Tris, pH 8.0, 50 mM NaCl, 1 mM DTT. The pure protein was then flash-frozen in liquid nitrogen and stored at −80°C.
# C57BL/6 mice were purchased from Harlan (Rehovot, Israel) and maintained in a pathogen-free facility, experiments were carried on 8-12 weeks old male mice. All exp eriments with mice were approved by the Weizmann Institute Animal Care and Use Committee.
# Splenic cells from C57BL/6 mice were isolated by forcing spleen tissue through mesh into PBS containing 2% fetal calf serum and 1 mM EDTA and red blood cells were depleted by lysis buffer. Cells were cultured in 96-well U-b ottom dishes (1x10^6 cells/m L in RPMI 10% […]
# nM, 10 nM, 1 nM, 0.1 nM) for 24 hours at 37° C in 5% humidified CO2 incubator. Following a 24 hours incubation, cells were stimulated with anti-IgM overnight (5 µg/mL, Sigma-Aldrich). Subsequently, cells were stained with anti-B220 (clone RA3-6B2, Biolegend) and anti-CD86 (clone GL-1, Biolegend) antibodies for 30 minutes at 4°C. Single cell suspensions were analyzed by a flow cytometer (CytoFlex, Beckman Coulter).
# Cells were analyzed by intensity based, label-free mass spectrometry based proteomics.
# Sample preparation: 106 Ramos cells were treated in four replicates with either compound or DMSO for 24 hours. Cells were then washed twice by centrifuge at 200 rcf, 4°C for 5 minutes, removing the supernatant and washed with ice cold PBS. Samp les were then centrifuged at 200 rcf, 4°C for 5 minutes, then supernatant was removed and samples were frozen at -80°C.
# Samples were dispersed in 75 µl of 50 mM ammonium bicarbonate, and transferred to 1.8 mL glass vials. 75 µl of 10% SDS in 50 mM ammonium bicarbonate were added and the samples were heated to 96° C for 6 minutes. The samples were sonicated thoroughly in a sonication bath until the DNA was sheared as indicated by reduction in viscosity to level enabling easy pipettation. Total protein concentration was estimated using BCA as say and 30 µg from each sample was taken for the experiment. […]
# to 60°C for 45 minutes. The samples were cooled to room temperature, and 1/20 volume of […]
# 200 mM iodoacetamide was added and the reaction was performed in the dark for 30 minutes.
# At this point, 1/10 volume of 12% phosphoric acid was added, followed by 6 volume […]
# of 90% methanol in 50 mM ammonium bicarbonate. The samples were loaded on S-trap Micro […]
# columns (Protify), and washed 3 times with 90% methanol in 50 mM ammonium bicarbonate.
# The columns were spun without washing to dry the methanol. Then, 1 µg of trypsin (Promga) […]
# in 20 µl of 50 mM ammonium bicarbonate was added to each column, and they were incubated […]
# at 47° C for 1. 5 hours. Then, 40 µl of 50 mM ammonium bicarbonate was added and the sample […]
# was eluted and another 0. 5 µg of trypsin was added, fo llowed by overnight incubation at 37 ° C.
# The columns themselves were further eluted with 40 µl 0.2% formic acid in water, followed […]
# [2] = target: wild-type BTK (Homo sapiens, UniProt Q06187); assay: In vitro kinase activity assay, wild-type BTK (Nanosyn)
# wild-type BTK, sequence (Q06187 whole entry, species assumed): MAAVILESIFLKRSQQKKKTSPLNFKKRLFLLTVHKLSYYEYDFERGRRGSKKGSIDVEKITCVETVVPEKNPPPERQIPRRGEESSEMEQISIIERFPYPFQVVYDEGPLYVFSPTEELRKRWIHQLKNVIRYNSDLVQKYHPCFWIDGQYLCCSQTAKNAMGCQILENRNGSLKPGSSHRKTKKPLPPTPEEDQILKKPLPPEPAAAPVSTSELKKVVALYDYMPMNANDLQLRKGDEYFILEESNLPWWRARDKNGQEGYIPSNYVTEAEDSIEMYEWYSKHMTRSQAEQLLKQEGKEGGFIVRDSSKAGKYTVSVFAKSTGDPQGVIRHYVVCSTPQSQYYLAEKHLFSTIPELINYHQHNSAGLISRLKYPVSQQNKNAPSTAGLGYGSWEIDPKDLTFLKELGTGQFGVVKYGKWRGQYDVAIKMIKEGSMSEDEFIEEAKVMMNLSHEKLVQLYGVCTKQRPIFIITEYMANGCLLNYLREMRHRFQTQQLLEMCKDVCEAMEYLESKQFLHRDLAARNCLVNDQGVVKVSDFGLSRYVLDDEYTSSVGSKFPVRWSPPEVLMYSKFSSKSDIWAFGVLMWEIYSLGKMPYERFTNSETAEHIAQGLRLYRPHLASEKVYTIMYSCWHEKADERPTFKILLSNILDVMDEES
# [3] = 50 nM, Log2 fold-change vs DMSO
# [4] = 100 nM, Log2 fold-change vs DMSO
SMILES,effect on off-targets LCK and PLK1 ([1]; 50 or 100 nM),"off-targets degraded (CSK, LYN, BLK) ([1]; 50 or 100 nM)","Difference for 50 nM, C11orf98 [1, 3]","Difference for 100 nM, C11orf98 [1, 4]","Difference for 50 nM, MED19 [1, 3]","Difference for 100 nM, MED19 [1, 4]","Difference for 50 nM, MAP1LC3B;MAP1LC3B2;MAP1LC3A [1, 3]","Difference for 100 nM, MAP1LC3B;MAP1LC3B2;MAP1LC3A [1, 4]",IC50 [2] [nM],"Difference for 50 nM, MIF4GD [1, 3]","Difference for 100 nM, MIF4GD [1, 4]",also measured
Nc1ncnc2c1c(-c1ccc(Oc3ccccc3)cc1)nn2C1CCCN(C(=O)C=CCCCCOCCOCCOCCOCCOc2cccc3c2C(=O)N(C2CCC(=O)NC2=O)C3=O)C1 (stereo not drawn) [IR-2],not significantly affected,"degraded the known ibrutinib off-targets CSK, LYN, and BLK",-0.1649,-0.1913,-0.004671,0.772,-0.3401,-0.09776,14,–,–,"Difference for 50 nM, POM121C ([1]; protein POM121C, 50 nM, Log2 fold-change vs DMSO): 0.7405; Difference for 100 nM, POM121C ([1]; protein POM121C, 100 nM, Log2 fold-change vs DMSO): 0.8148; Difference for 50 nM, RASA4;RASA4B ([1]; proteins RASA4;RASA4B, 50 nM, Log2 fold-change vs DMSO): 0.1914; Difference for 100 nM, RASA4;RASA4B ([1]; proteins RASA4;RASA4B, 100 nM, Log2 fold-change vs DMSO): -0.07223"
CC(C)(C=C(C#N)C(=O)N1CCCC(n2nc(-c3ccc(Oc4ccccc4)cc3)c3c(N)ncnc32)C1)CCCOCCOCCOCCOCCOc1cccc2c1C(=O)N(C1CCC(=O)NC1=O)C2=O (stereo not drawn) [RC-3],–,the only significant off-target of RC-3 was BLK,–,–,0.1151,0.03137,-0.1457,0.000999,0.4,–,–,"activity against noncovalent off-targets CSK and LYN ([1]; 50 or 100 nM): no activity; Difference for 50 nM, SAC3D1 ([1]; protein SAC3D1 (A6NKF1), 50 nM, Log2 fold-change vs DMSO): -1.386; Difference for 100 nM, SAC3D1 ([1]; protein SAC3D1 (A6NKF1), 100 nM, Log2 fold-change vs DMSO): -0.4129; Difference for 50 nM, TRAPPC13 ([1]; protein TRAPPC13 (A5PLN9), 50 nM, Log2 fold-change vs DMSO): -0.1201; Difference for 100 nM, TRAPPC13 ([1]; protein TRAPPC13 (A5PLN9), 100 nM, Log2 fold-change vs DMSO): -0.2022; Difference for 50 nM, GPR89B;GPR89A ([1]; proteins GPR89B;GPR89A, 50 nM, Log2 fold-change vs DMSO): -0.3119; Difference for 100 nM, GPR89B;GPR89A ([1]; proteins GPR89B;GPR89A, 100 nM, Log2 fold-change vs DMSO): -0.8716"
N#CC(=CCCCCOCCOCCOCCOCCOc1cccc2c1C(=O)N(C1CCC(=O)NC1=O)C2=O)C(=O)N1CCCC(n2nc(-c3ccc(Oc4ccccc4)cc3)c3c(N)ncnc32)C1 (stereo not drawn) [RC-2],not significantly affected,"degraded the known ibrutinib off-targets CSK, LYN, and BLK",-0.2599,0.08889,–,–,-0.1598,0.1213,1,–,–,"Difference for 50 nM, ESYT2 ([1]; protein ESYT2 (A0FGR8), 50 nM, Log2 fold-change vs DMSO): 0.001137; Difference for 100 nM, ESYT2 ([1]; protein ESYT2 (A0FGR8), 100 nM, Log2 fold-change vs DMSO): -0.137; Difference for 50 nM, HAX1 ([1]; protein HAX1 (O00165), 50 nM, Log2 fold-change vs DMSO): -0.1673; Difference for 100 nM, HAX1 ([1]; protein HAX1 (O00165), 100 nM, Log2 fold-change vs DMSO): 0.4145; Difference for 50 nM, UNC119B ([1]; protein UNC119B (A6NIH7), 50 nM, Log2 fold-change vs DMSO): -0.2229; Difference for 100 nM, UNC119B ([1]; protein UNC119B (A6NIH7), 100 nM, Log2 fold-change vs DMSO): -0.06661"
Nc1ncnc2c1c(-c1ccc(Oc3ccccc3)cc1)nn2C1CCCN(C(=O)CCCCCCOCCOCCOCCOCCOc2cccc3c2C(=O)N(C2CCC(=O)NC2=O)C3=O)C1 (stereo not drawn) [NC-1],not significantly affected,"degraded the known ibrutinib off-targets CSK, LYN, and BLK",–,–,–,–,-0.1034,0.1967,16,0.1494,0.1711,"BTK degradation (proteomics) ([1]; 50 or 100 nM): highest degradation potency against BTK; Difference for 50 nM, NUDT19 ([1]; protein NUDT19 (A8MXV4), 50 nM, Log2 fold-change vs DMSO): 0.09117; Difference for 100 nM, NUDT19 ([1]; protein NUDT19 (A8MXV4), 100 nM, Log2 fold-change vs DMSO): 0.676; Difference for 50 nM, ZC3H12D ([1]; protein ZC3H12D (A2A288), 50 nM, Log2 fold-change vs DMSO): -0.03901; Difference for 100 nM, ZC3H12D ([1]; protein ZC3H12D (A2A288), 100 nM, Log2 fold-change vs DMSO): -0.07076; Difference for 50 nM, SNRPG;SNRPGP15 ([1]; proteins SNRPG;SNRPGP15, 50 nM, Log2 fold-change vs DMSO): -0.1263; Difference for 100 nM, SNRPG;SNRPGP15 ([1]; proteins SNRPG;SNRPGP15, 100 nM, Log2 fold-change vs DMSO): 0.0004592"
Nc1ncnc2c1c(-c1ccc(Oc3ccccc3)cc1)nn2C1CCCN(C(=O)C=CCOCCOCCOCCOCCOCCOc2cccc3c2C(=O)N(C2CCC(=O)NC2=O)C3=O)C1 (stereo not drawn) [IR-1],not significantly affected,"degraded the known ibrutinib off-targets CSK, LYN, and BLK",-0.4718,0.1735,0.1815,-0.5554,0.1478,0.3122,2,-0.2478,-0.02661,"Difference for 50 nM, RGPD3;RGPD4 ([1]; proteins RGPD3;RGPD4, 50 nM, Log2 fold-change vs DMSO): 0.0493; Difference for 100 nM, RGPD3;RGPD4 ([1]; proteins RGPD3;RGPD4, 100 nM, Log2 fold-change vs DMSO): 0.2554"

# From publication PMC7349657, “Efficient Targeted Degradation via Reversible and Irreversible Covalent PROTACs” (Journal of the American Chemical Society, 2020)
